# In PubChem BioAssay AID1159558 (GlaxoSmithKline (GSK), 2015):
# Activity calls are given as the source filed them.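 The calls were made as follows: active = IC50 against T. cruzi CYP51 below a set limit; inactive = the rest.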
# Target: Sterol 14-alpha demethylase (Trypanosoma cruzi (strain CL Brener)) (UniProt Q7Z1V1)
# Assay: T. cruzi sterol 14-alpha demethylase inhibition – biochemical, recombinant enzyme, mechanism study for T. cruzi antiparasitic project, dose response (AID 1159558);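 also: enzyme in bacterial membranes with Anopheles gambiae CYP reductase and cytochrome b5 partners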
# Conditions: recombinant T. cruzi CYP51, BOMCC fluorescence
# Chain of Sterol 14-alpha demethylase (Trypanosoma cruzi (strain CL Brener)) (Q7Z1V1 whole entry, looked up): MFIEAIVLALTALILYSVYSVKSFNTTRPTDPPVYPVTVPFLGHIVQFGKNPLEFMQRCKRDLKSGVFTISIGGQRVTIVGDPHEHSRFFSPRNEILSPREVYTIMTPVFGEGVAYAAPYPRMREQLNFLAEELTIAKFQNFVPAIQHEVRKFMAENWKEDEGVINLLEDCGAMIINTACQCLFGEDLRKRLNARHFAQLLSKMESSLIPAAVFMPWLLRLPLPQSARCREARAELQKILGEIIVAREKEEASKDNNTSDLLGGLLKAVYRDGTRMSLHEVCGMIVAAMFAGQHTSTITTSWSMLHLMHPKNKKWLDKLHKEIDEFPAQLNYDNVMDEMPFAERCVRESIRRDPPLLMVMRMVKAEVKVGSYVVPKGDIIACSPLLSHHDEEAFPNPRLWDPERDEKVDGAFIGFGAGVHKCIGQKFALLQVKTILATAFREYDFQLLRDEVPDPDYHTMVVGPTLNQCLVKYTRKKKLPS
row,Structure (SMILES),IC50
1,CCOc1ccc(Nc2ccc(S(=O)(=O)N3CCN(C)CC3)cc2[N+](=O)[O-])cc1OCC,32 µM
2,Cc1cc(N2CCc3ccccc3C2)nc(Nc2ccc(S(=O)(=O)N3CCOCC3)cc2)n1,> 100 µM (inactive)
3,CC(C)COC(=O)Nc1ccc(N2CCC(CNS(=O)(=O)c3ccccc3)CC2)c(F)c1,2 µM
4,O=C(NCCc1nc(-c2ccc(F)c(F)c2)n[nH]1)C1CCCCC1,25 µM
5,COc1ccc2ncc(=O)n(CCN3CC[C@H](NCc4ncc(Cl)c5[nH]ncc45)[C@H](O)C3)c2n1,> 100 µM (inactive)
6,O=C(CN1CCN(S(=O)(=O)c2cccc([N+](=O)[O-])c2)CC1)Nc1ccc(Oc2ccccc2)cc1,2.5 µM
7,Cn1ccnc1CN1CCc2[nH]cnc2C1c1ccccc1OCc1ccccc1 (centres undefined),7.9 µM
8,CC(C)(C)Nc1nc(-c2ccccn2)nc2ccccc12,> 100 µM (inactive)
9,O=C(C1CCCCC1)N1CCN(c2nnc(-c3ccccc3)c3ccccc23)CC1,> 100 µM (inactive)
10,Cc1cc(Oc2cc(Cl)c(Cl)cc2Cl)n2ncnc2n1,> 100 µM (inactive)
11,Clc1cc(Br)ccc1OCCCCn1ccnc1,0.063 µM
12,O=C(Nc1cccc(Cl)c1)N1CCCCC1c1cccnc1 (centres undefined),0.02 µM
13,O=c1ccc2ccc(F)c3c2n1C[C@H]3CN1CCN(CC(O)c2cc3c(cn2)OCS3)CC1 (some centres undefined),> 100 µM (inactive)
14,Cc1cc(N(C)C)nc(Nc2ccccc2C)n1,> 100 µM (inactive)
15,Cc1ccc(S(=O)(=O)Nc2ccc(CN3CCN(C(=O)c4cccc(C#N)c4)CC3)cc2)cc1,> 100 µM (inactive)
16,N#Cc1ccccc1S(=O)(=O)N1CCN(C(=O)CNC(=O)c2ccc3c(c2)OCO3)CC1,79 µM
17,O=C(Nc1cccc(S(=O)(=O)Nc2ccc(Br)cc2)c1)c1ccc([N+](=O)[O-])s1,2.5 µM
18,COc1ccccc1-c1c(C)[nH]c2nc(N)nc(C)c12,> 100 µM (inactive)
19,c1ccc(Nc2nc(-c3ccccn3)cc(N3CCOCC3)n2)cc1,> 100 µM (inactive)
20,COc1ccc(Nc2nc(NC3CCC(O)CC3)ncc2Br)c(C(N)=O)c1 (centres undefined),13 µM
21,O=c1cc(NCCCNCc2c[nH]c3ccc(Br)cc23)[nH]c2ccccc12,> 100 µM (inactive)
22,CC(C)(C)c1cc(NC2CC2)nc(-c2ccccn2)n1,> 100 µM (inactive)
23,CNc1cc(Cn2c(C(=O)c3cc(C)cc(Cl)c3)c(C(C)C)c(=O)[nH]c2=O)ccn1,0.032 µM
24,CCOC(=O)c1cn[nH]c1S(=O)(=O)N1CCC1c1ccccc1 (centres undefined),50 µM
25,c1ccc2c(CCOc3nccnc3-c3ccncc3)c[nH]c2c1,0.063 µM
26,Cc1nn2c(NCCCO)c3c(nc2c1-c1cccs1)CCC3,25 µM

row,Structure (SMILES),IC50
1,O=S(=O)(c1cccc(CSc2nnc(-c3ccc4c(c3)OCO4)o2)c1)N1CCOCC1,13 µM
2,CNc1cncc(C2CCCN2C(=O)Cc2coc3cc(C)ccc23)n1 (centres undefined),0.025 µM
3,COc1cnc2ccc(=O)n(CCN3CCC(NC(=O)Cc4ccc(Cl)c(Cl)c4)CC3)c2c1,0.79 µM
4,O=C(c1cccc(Cl)c1Cl)N1CCn2c1nc(-c1ccncc1)cc2=O,0.063 µM
5,NS(=O)(=O)c1ccc(Nc2ncc3cccc(OC4CCNCC4)c3n2)cc1,> 100 µM (inactive)
6,Cc1occc1C(=O)Nc1ccccc1C(=O)Nc1nccs1,> 100 µM (inactive)
7,COc1ccc(CNc2nsc3ccccc23)cc1OC,13 µM
8,CN(Cc1nc2c(C(=O)N3CCN(Cc4ccccc4)CC3)cccc2[nH]1)C1CCCc2cccnc21 (centres undefined),40 µM
9,O=C(NC1C(=O)N(c2ccccc2)C1c1cccnc1)c1ccc(Cl)s1 (centres undefined),0.2 µM
10,O=C(Nc1ccc(C(F)(F)F)cc1)Nc1cccc([N+](=O)[O-])c1,6.3 µM
11,O=c1[nH]cnc2c([C@@H]3O[C@H](CO)[C@@H](O)[C@H]3O)[nH]nc12,> 100 µM (inactive)
12,N#Cc1c(Oc2cccc(Cl)c2)cccc1[N+](=O)[O-],> 100 µM (inactive)
13,CN(Cc1cc2ccccc2s1)c1ncc2c(N)nc(N)nc2n1,> 100 µM (inactive)
14,CC(Cn1ccnc1)NC(=O)C1CC1c1cccc(Cl)c1Cl (centres undefined),0.13 µM
15,COc1cc(F)c2ncc(F)c(CCN3CC[C@H](NCc4cc5c(cn4)OCS5)[C@@H](O)C3)c2c1,32 µM
16,O=C(CN(Cc1ccccn1)Cc1ccccn1)NCc1ccc(-c2csnn2)cc1,40 µM
17,COc1cccc(S(=O)(=O)Nc2ccc3c(c2)CC(N2CCC(NC(=O)C4CC4)CC2)C3)c1 (centres undefined),63 µM
18,CC(C)(C)c1csc(NC(=O)c2ccc([N+](=O)[O-])s2)n1,7.9 µM
19,COc1ccc2ncc(Cl)c(CCN3CC[C@H](NCc4cc5c(cn4)OCS5)[C@@H](O)C3)c2n1,7.9 µM
20,O=C(NCC(c1cccs1)N1CCOCC1)c1ccc([N+](=O)[O-])o1 (centres undefined),10 µM
21,Nc1nc(-c2ccccn2)nc(N)c1Cc1c(F)cccc1Cl,> 100 µM (inactive)
22,CC(C)C[C@H](NC(=O)c1csc(-c2cccs2)n1)C(=O)NC1(C#N)CC1,> 100 µM (inactive)
23,O=c1cc(NCCCNCc2cc(C(F)(F)F)cs2)[nH]c2ccccc12,25 µM
24,COc1cc(Nc2nccc(Nc3onc(C)c3C)n2)cc(S(=O)(=O)C2CCOCC2)c1,7.9 µM
25,Cc1cccc(NS(=O)(=O)c2cnc3sc(C)cn3c2=O)c1,> 100 µM (inactive)

# Results, then the compound that gave them:
row,IC50,Structure (SMILES)
1,40 µM,Cc1nc(C(=O)Nc2ccc3c(c2)OCO3)nn1-c1ccc(F)cc1
2,0.079 µM,O=S(=O)(NCC(c1cccnc1)N1CCN(c2ccccc2F)CC1)c1ccc(F)cc1 (centres undefined)
3,> 100 µM (inactive),COc1ccc([N+](=O)[O-])cc1NC(=O)c1cc(Cl)ccc1O
4,63 µM,CCS(=O)(=O)c1cccc(C(=O)Nc2nc(-c3ccccn3)cs2)c1
5,13 µM,CS(=O)(=O)c1cccc(CNC(=O)c2cncc(N3CCN(c4ccc(F)cc4)CC3)c2)c1
6,0.04 µM,COc1ccc(-c2nc3ccncc3c(=O)n2CCOc2ccccc2)cc1
7,0.1 µM,CN(Cc1ccc(C(N)=O)cc1)C(c1ccc(F)cc1)c1cccnc1 (centres undefined)
8,20 µM,COc1ccccc1CNc1cc(C2CC2)nc(-c2nccn2C)n1
9,5 µM,CNc1nc(C)nc(N2CCc3cc(C(=O)NCc4ccc(-c5ccn[nH]5)cc4Cl)ccc32)n1
10,25 µM,O=C(NCCc1csc(-c2ccc(F)cc2)n1)c1cccs1
11,16 µM,O=C(NCCCn1cnc2ccccc21)c1ccc(NC(=O)c2ccco2)cc1
12,1.6 µM,CNc1nc(C)nc(N2CCc3cc(C(=O)NCc4ccc(-c5nccn5C)cc4Cl)ccc32)n1
13,> 100 µM (inactive),O=C(Nc1nc2cc(Cl)ccc2o1)c1cccc(Cl)c1
14,> 100 µM (inactive),COc1ccc(-c2ccc3nnc(-c4ccc(O)c(OC)c4)n3c2)cn1
15,10 µM,COc1ccc(-c2cnc(NC(=O)c3ccc(F)cc3)n2C)cc1
16,25 µM,CC(=O)Nc1ccc(-c2ccnc(Nc3cccc(C#N)c3)n2)cc1
17,> 100 µM (inactive),CNC(=O)C1Cc2ccccc2N1C(=O)Cc1ccc(F)cc1 (centres undefined)
18,> 100 µM (inactive),O=C(NCCNc1noc(-c2ccc([N+](=O)[O-])cc2)n1)c1ccc(Cl)cc1
19,16 µM,O=c1ccn(-c2ccc([N+](=O)[O-])cc2Cl)c2ccc(F)cc12
20,5 µM,O=C(Nc1nc2ccccc2[nH]1)c1ccc2nc[nH]c2c1
21,63 µM,Cc1ccnc(NS(=O)(=O)c2ccc(NC(=O)c3ccc([N+](=O)[O-])s3)cc2)n1
22,25 µM,OC[C@@H](Nc1nccc(-c2c(-c3ccc(F)cc3)ncn2C2CCNCC2)n1)c1ccccc1
23,4 µM,Cc1ccc(NC(=O)c2ccnc(N3CCCC3)c2)cc1-c1cc(C(N)=O)ccc1C
